In patent publication US12459891B2, “1-[1-(4-benzyloxy-3,5-difluoro-benzoyl)-4-fluoro-pyrrolidine-2-carbonyl]-pyrrolidine-2-carbonitrile” (ACCURE THERAPEUTICS, S.L., priority 2020, dated 2025):
pIC50: −log10 of the molar value.

What was measured:
[1] = tested on: MK-801-treated mice; experiment: Novel object recognition (NOR) task, MK-801-induced cognitive deficit; format: in vivo, male C57/Bl6 mice; conditions: for % discrimination index: mean ± s.e.m.
[2] = Plasma levels after oral administration; format: in vivo
[3] = biological target: T1, human prolyl oligopeptidase (Homo sapiens, UniProt P48147); experiment: POP inhibition assay (Z-G-P-AMC substrate, fluorimetric); format: biochemical; conditions: hPOP 20 to 60 nM, 15 min preincubation, 1 hour at 37° C., pH 8.0
T1 construct: His tail; made in house; host or cells: E. coli BL21
T1 sequence (P48147 1-710): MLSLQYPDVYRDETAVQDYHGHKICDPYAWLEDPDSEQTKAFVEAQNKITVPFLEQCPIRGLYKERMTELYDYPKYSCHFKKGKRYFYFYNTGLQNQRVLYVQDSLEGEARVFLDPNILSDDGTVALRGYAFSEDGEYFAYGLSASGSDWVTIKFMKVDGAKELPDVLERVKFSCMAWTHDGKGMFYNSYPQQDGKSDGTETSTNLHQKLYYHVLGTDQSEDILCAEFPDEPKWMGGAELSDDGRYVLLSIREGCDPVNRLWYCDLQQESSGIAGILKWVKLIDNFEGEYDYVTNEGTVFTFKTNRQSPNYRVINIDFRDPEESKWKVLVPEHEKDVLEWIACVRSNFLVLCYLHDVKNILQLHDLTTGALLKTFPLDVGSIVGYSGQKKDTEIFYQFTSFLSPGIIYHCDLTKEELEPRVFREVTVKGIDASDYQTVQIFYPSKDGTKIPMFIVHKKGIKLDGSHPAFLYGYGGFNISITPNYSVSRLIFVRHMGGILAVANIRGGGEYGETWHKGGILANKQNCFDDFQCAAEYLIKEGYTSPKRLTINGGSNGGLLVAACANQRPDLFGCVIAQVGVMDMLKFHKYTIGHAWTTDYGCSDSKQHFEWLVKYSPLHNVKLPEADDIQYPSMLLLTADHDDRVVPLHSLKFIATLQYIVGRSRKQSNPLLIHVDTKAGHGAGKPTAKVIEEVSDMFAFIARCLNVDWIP
Description: POP was obtained by expression in E. coli and affinity purification using a His tail fusion according to a literature procedure (Tarragó T et al., Chem Bio Chem 2006; 7:827-33) summarized below:
hPOP expression: E. coli BL21 competent cells were transformed with pETM10 hPOP. To induce expression, a pre-culture of LB medium (50 mL) containing kanamycin (50 μg/mL) was inoculated with one colony and was grown overnight at 37° C. Next day, two cultures of LB medium (500 mL) were inoculated with the overnight culture (10 mL). The inoculated cultures were grown at 37° C. and 220 rpm until the OD595 was 1.2 (2.5-3 hours). […] The column was washed with suspension buffer until the absorbance at 280 nm returned to basal level. […] POP activity was checked in all fractions and positive ones were analyzed by SDS-PAGE and stained with Biosafe Comassie Stain G-250. […] Recombinant hPOP was quantified with the Bio-Rad Protein Assay with BSA as standard. […]
POP activity was determined following the method described by Toide et al (Toide K et al., J. Pharmacol. Exp. Ther. 1995; 274:1370-8), using Z-G-P-AMC (N-benzyloxycarbonyl-Gly-Pro-methylcoumarinyl-7-amide) as POP substrate. […]
Several concentration points (ranging from 25 μM to 400 μM) were measured for each compound. The inhibitory activity on prolyl oligopeptidase was calculated according to eq 1. […]

[4] = compound 5 mg/kg intraperitoneal 35 min before test + MK 801 0.2 mg/kg sc
[5] = compound 5 mg/kg oral (po) 35 min before test + MK 801 0.2 mg/kg sc

| SMILES | % discrimination index [1, 4] | % discrimination index [1, 5] | Efficacy after oral administration (in words) ([1]; oral administration) | Detected plasma levels of the drug (in words) [2] | pIC50 [3] |
| --- | --- | --- | --- | --- | --- |
| COc1cc(C(=O)N2CC(F)(F)C[C@H]2C(=O)N2CCC[C@H]2C#N)cc(OC)c1OCc1ccccc1 [Comp Ex. 3, (S)-1-((2S)-1-(4-(benzyloxy)-3,5-dimethoxybenzoyl)-4,4-difluoropyrrolidine-2-carbonyl)pyrrolidine-2-carbonitrile] | 42.7 ± 3.3 % | 20.1 ± 2.9% | no efficacy | very low |  |
| N#C[C@@H]1CCCN1C(=O)[C@@H]1CC(F)(F)CN1C(=O)c1ccc(OCc2ccccc2)c(F)c1 [Comp Ex. 4, (S)-1-((S)-1-(4-(benzyloxy)-3-fluorobenzoyl)-4,4-difluoropyrrolidine-2-carbonyl) pyrrolidine-2-carbonitrile] |  |  |  |  | 6.44 |
| N#C[C@@H]1CCCN1C(=O)[C@@H]1C[C@@H](F)CN1C(=O)c1cc(F)c(OCc2ccccc2)c(F)c1 [Example 1, (S)-1-((2S,4R)-1-(4-(benzyloxy)-3,5-difluorobenzoyl)-4-fluoropyrrolidine-2-carbonyl)pyrrolidine-2-carbonitrile] | 30.3 ± 3.9% | 42.1 ± 5.1 % |  |  | 7.35 |
